What was measured:
[1] = test system: Glomerella lacenarium (Colletotrichum lacenarium); assay: Glomerella lacenarium (Colletotrichum lacenarium) liquid culture / cucumber / preventative (anthracnose); assay type: cell-based; conditions: 20 ppm in the applied formulation, growth inhibition measured photometrically, compared to untreated control, read-out: disease control
Protocol: Mycelia fragments or conidia suspensions of a fungus prepared either freshly from liquid cultures of the fungus or from cryogenic storage, are directly mixed into nutrient broth. DMSO solutions of the test compound (max. 10 mg/ml) are diluted with 0.025% Tween20 by a factor of 50 and 10 μl of this solution is pipetted into a microtiter plate (96-well format). The nutrient broth containing the fungal spores/mycelia fragments is then added to give an end concentration of the tested compound. The test plates are incubated in the dark at 24° C. and 96% relative humidity. The inhibition of fungal growth is determined photometrically after 2 to 7 days, depending on the pathosystem, and percent antifungal activity relative to the untreated check is calculated.
Conidia of the fungus from cryogenic storage are directly mixed into nutrient broth (PDB—potato dextrose broth). After placing a (DMSO) solution of test compound into a microtiter plate (96-well format), the nutrient broth containing the fungal spores is added. The test plates are incubated at 24° C. and the inhibition of growth is measured photometrically 3 to 4 days after application.
The following compounds at 20 ppm in the applied formulation give at least 80% disease control in this test when compared to untreated control under the same conditions, which show extensive disease development.

Phakopsora pachyrhizi = Phakopsora pachyrhizi / soybean / leaf disc preventative (Asian soybean rust); assay type: in vivo; conditions: foliar, 200 ppm in the applied formulation, compared to untreated control, read-out: disease control
Protocol: (§1) Leaf disks or leaf segments of various plant species are cut from plants grown in a greenhouse. The cut leaf disks or segments are placed in multiwell plates (24-well format) onto water agar. The leaf disks are sprayed with a test solution before (preventative) or after (curative) inoculation. Compounds to be tested are prepared as DMSO solutions (max. 10 mg/ml) which are diluted to the appropriate concentration with 0.025% Tween20 just before spraying. The inoculated leaf disks or segments are incubated under defined conditions (temperature, relative humidity, light, etc.) according to the respective test system. A single evaluation of disease level is carried out 3 to 14 days after inoculation, depending on the pathosystem. Percent disease control relative to the untreated check leaf disks or segments is then calculated.
Soybean leaf disks are placed on water agar in multiwell plates (24-well format) and sprayed with the formulated test compound diluted in water. One day after application leaf discs are inoculated by spraying a spore suspension on the lower leaf surface. After an incubation period in a climate cabinet of 24-36 hours in darkness at 20° C. and 75% rh leaf disc are kept at 20° C. with 12 h light/day and 75% rh. The activity of a compound is assessed as percent disease control compared to untreated when an appropriate level of disease damage appears in untreated check leaf disks (12 to 14 days after application).
(§2) The following compounds at 200 ppm in the applied formulation give at least 80% disease control in this test when compared to untreated control leaf disks under the same conditions, which show extensive disease development.

[2] = test system: Puccinia recondita f. Sp. tritici; assay: Puccinia recondita f. sp. tritici / wheat / leaf disc curative (brown rust); assay type: in vivo; conditions: foliar, 200 ppm in the applied formulation, compared to untreated control, read-out: disease control
Protocol: as §1
Wheat leaf segments cv. Kanzler are placed on agar in multiwell plates (24-well format). The leaf segments are then inoculated with a spore suspension of the fungus. Plates were stored in darkness at 19° C. and 75% relative humidity. The formulated test compound diluted in water was applied 1 day after inoculation. The leaf segments were incubated at 19° C. and 75% relative humidity under a light regime of 12 hours light/12 hours darkness in a climate cabinet and the activity of a compound was assessed as percent disease control compared to untreated when an appropriate level of disease damage appears in untreated check leaf segments (6 to 8 days after application).
as §2

[3] = test system: Puccinia recondita f. Sp. tritici; assay: Puccinia recondita f. sp. tritici / wheat / leaf disc preventative (brown rust); assay type: in vivo; conditions: foliar, 200 ppm in the applied formulation, compared to untreated control, read-out: disease control
Protocol: as §1, with “calculated. Wheat leaf segments cv. Kanzler were placed on agar in multiwell plates (24-well format) and sprayed with the formulated test compound diluted in water. The leaf disks were inoculated with a spore suspension of the fungus 1 day after application. The inoculated leaf segments were incubated at 19° C. and 75% relative humidity (rh) under a light regime of 12 hours light/12 hours darkness in a climate cabinet and the activity of a compound was assessed as percent disease control compared to untreated when an appropriate level of disease damage appears in untreated check leaf segments (7 to 9 days after application). The following compounds at 200 ppm in the applied formulation give at least 80% disease control in this test when compared to untreated control leaf disks under the same conditions, which show extensive disease development.” for “calculated.”

Row | SMILES | melting point [°C] | inhibition of growth at 20 ppm [1] [%] | pest or weed control at 200 ppm (Phakopsora pachyrhizi) [%] | pest or weed control at 200 ppm [2] [%] | pest or weed control at 200 ppm [3] [%]
1 | CCCCC(=O)c1ccc(-c2noc(C(F)(F)F)n2)cc1 [Compound 1.5, 1-[4-[5-(trifluoromethyl)-1,2,4-oxadiazol-3-yl]phenyl]pentan-1-one] | 57 to 61 | ≥ 80 |  |  | 
2 | COc1ccc(C(=O)c2ccc(-c3noc(C(F)(F)F)n3)cc2)cn1 [Compound 1.15, (6-methoxy-3-pyridyl)-[4-[5-(trifluoromethyl)-1,2,4-oxadiazol-3-yl]phenyl]methanone] | 105 to 110 | ≥ 80 | ≥ 80 |  | 
3 | CCOC(=O)c1cnn(CC(=O)c2ccc(-c3noc(C(F)(F)F)n3)cc2)c1 [Compound 1.19, ethyl 1-[2-oxo-2-[4-[5-(trifluoromethyl)-1,2,4-oxadiazol-3-yl]phenyl]ethyl]pyrazole-4-carboxylate] | 153.6 to 156.1 |  |  |  | 
4 | O=C(c1ccc(-c2noc(C(F)(F)F)n2)cc1)c1ncc(C(F)(F)F)s1 [Compound 1.21, [4-[5-(trifluoromethyl)-1,2,4-oxadiazol-3-yl]phenyl]-[5-(trifluoromethyl)thiazol-2-yl]methanone] | 90 to 94 |  |  |  | 
5 | CCOC(=O)c1cc(C(=O)c2ccc(-c3noc(C(F)(F)F)n3)cc2)on1 [Compound 1.22, ethyl 5-[4-[5-(trifluoromethyl)-1,2,4-oxadiazol-3-yl]benzoyl]isoxazole-3-carboxylate] | 197 to 200 | ≥ 80 |  |  | 
6 | O=C(c1ccc(-c2noc(C(F)(F)F)n2)cc1)c1cnc(C(F)(F)F)s1 [Compound 1.23, [4-[5-(trifluoromethyl)-1,2,4-oxadiazol-3-yl]phenyl]-[2-(trifluoromethyl)thiazol-5-yl]methanone] | 126 to 132 |  |  |  | 
7 | CCOC(=O)c1csc(C(=O)c2ccc(-c3noc(C(F)(F)F)n3)cc2)n1 [Compound 1.25, ethyl 2-[4-[5-(trifluoromethyl)-1,2,4-oxadiazol-3-yl]benzoyl]thiazole-4-carboxylate] | 78 to 82 |  |  |  | 
8 | O=C(c1ccc(-c2noc(C(F)(F)F)n2)cc1)c1cnn(C(F)(F)F)c1 [Compound 1.26, [4-[5-(trifluoromethyl)-1,2,4-oxadiazol-3-yl]phenyl]-[1-(trifluoromethyl)pyrazol-4-yl]methanone] | 98 to 102 |  | ≥ 80 |  | 
9 | O=C(c1ccc(-c2noc(C(F)(F)F)n2)cc1)c1ccc(F)cc1F [Compound 1.28, (2,4-difluorophenyl)-[4-[5-(trifluoromethyl)-1,2,4-oxadiazol-3-yl]phenyl]methanone] | 92 to 95 | ≥ 80 | ≥ 80 |  | 
10 | O=C(c1ccc(-c2noc(C(F)(F)F)n2)cc1)c1cccc(OC(F)F)c1 [Compound 1.29, [3-(difluoromethoxy)phenyl]-[4-[5-(trifluoromethyl)-1,2,4-oxadiazol-3-yl]phenyl]methanone] | 85 to 88 | ≥ 80 | ≥ 80 |  | 
11 | CCOC(=O)c1cnc(C(=O)c2ccc(-c3noc(C(F)(F)F)n3)cc2)nc1C [Compound 1.31, ethyl 4-methyl-2-[4-[5-(trifluoromethyl)-1,2,4-oxadiazol-3-yl]benzoyl]pyrimidine-5-carboxylate] | 92 to 93 | ≥ 80 |  |  | 
12 | O=C(c1ccc(-c2noc(C(F)(F)F)n2)cc1)c1cscn1 [Compound 1.32, thiazol-4-yl-[4-[5-(trifluoromethyl)-1,2,4-oxadiazol-3-yl]phenyl]methanone] | 68 to 74 | ≥ 80 | ≥ 80 |  | 
13 | Cc1ncc(C(=O)c2ccc(-c3noc(C(F)(F)F)n3)cc2)s1 [Compound 1.34, (2-methylthiazol-5-yl)-[4-[5-(trifluoromethyl)-1,2,4-oxadiazol-3-yl]phenyl]methanone] | 116 to 120 | ≥ 80 |  | ≥ 80 | 
14 | Cc1cncc(C(=O)c2ccc(-c3noc(C(F)(F)F)n3)cc2)c1 [Compound 1.36, (5-methyl-3-pyridyl)-[4-[5-(trifluoromethyl)-1,2,4-oxadiazol-3-yl]phenyl]methanone] | 80 to 84 |  |  |  | 
15 | CC(C)(C)C(O)c1ccc(-c2noc(C(F)(F)F)n2)cc1 (stereo not drawn) [Compound 2.1, 2,2-dimethyl-1-[4-[5-(trifluoromethyl)-1,2,4-oxadiazol-3-yl]phenyl]propan-1-ol] | 60 to 75 | ≥ 80 | ≥ 80 |  | 
16 | N#CC(O)c1ccc(-c2noc(C(F)(F)F)n2)cc1 (stereo not drawn) [Compound 2.11, 2-hydroxy-2-[4-[5-(trifluoromethyl)-1,2,4-oxadiazol-3-yl]phenyl]acetonitrile] | 79 to 80 | ≥ 80 |  |  | ≥ 80
17 | OC(c1ccc(-c2noc(C(F)(F)F)n2)cc1)c1ccc(F)cc1F (stereo not drawn) [Compound 2.15, (2,4-difluorophenyl)-[4-[5-(trifluoromethyl)-1,2,4-oxadiazol-3-yl]phenyl]methanol] |  | ≥ 80 | ≥ 80 |  | ≥ 80
18 | CCC(O)c1ccc(-c2noc(C(F)(F)F)n2)cc1 (stereo not drawn) [Compound 2.16, 1-[4-[5-(trifluoromethyl)-1,2,4-oxadiazol-3-yl]phenyl]propan-1-ol] | 66 to 68 | ≥ 80 |  |  | 
19 | C=CCC(O)c1ccc(-c2noc(C(F)(F)F)n2)cc1 (stereo not drawn) [Compound 2.17, 1-[4-[5-(trifluoromethyl)-1,2,4-oxadiazol-3-yl]phenyl]but-3-en-1-ol] | 45 to 48 | ≥ 80 | ≥ 80 |  | 
20 | CCOC(=O)c1csc(C(O)c2ccc(-c3noc(C(F)(F)F)n3)cc2)n1 (stereo not drawn) [Compound 2.19, ethyl 2-[hydroxy-[4-[5-(trifluoromethyl)-1,2,4-oxadiazol-3-yl]phenyl]methyl]thiazole-4-carboxylate] | 118 to 122 |  |  |  | ≥ 80
21 | Cc1ccc(C(O)c2ccc(-c3noc(C(F)(F)F)n3)cc2)nc1 (stereo not drawn) [Compound 2.21, (5-methyl-2-pyridyl)-[4-[5-(trifluoromethyl)-1,2,4-oxadiazol-3-yl]phenyl]methanol] |  |  |  | ≥ 80 | ≥ 80
22 | C=CCC(O)(c1ccc(-c2noc(C(F)(F)F)n2)cc1)c1cc(C)no1 (stereo not drawn) [Compound 2.23, 1-(3-methylisoxazol-5-yl)-1-[4-[5-(trifluoromethyl)-1,2,4-oxadiazol-3-yl]phenyl]but-3-en-1-ol] |  |  |  | ≥ 80 | 
23 | Cc1cc(C(O)(c2ccc(-c3noc(C(F)(F)F)n3)cc2)C(C)C)on1 (stereo not drawn) [Compound 2.29, 2-methyl-1-(3-methylisoxazol-5-yl)-1-[4-[5-(trifluoromethyl)-1,2,4-oxadiazol-3-yl]phenyl]propan-1-ol] |  |  |  |  | ≥ 80
